Reference: PubChem BioAssay AID1918952 (Molecular Pharmacology Branch, DTP, NCI, 2023)

System: LG0703-F948-PDC complex spheroid viability
Assay: Anticancer human tumor LG0703-F948-PDC patient-derived lung adenocarcinoma cell line growth inhibition
Details: for IC50: curve of first compound; for viability, T/C: stronger effect = lower value
Description: Multicellular complex tumor spheroid response to LSD1 Inhibitor Iadademstat in combination with a variety of drugs and investigational agents in selected tumor cell lines
The current study was undertaken to assess response to LSD1 inhibitors in combination with standard-of-care drugs and investigational agents in solid tumor complex spheroid models as well as in the K-562 leukemia. Complex spheroids include a stromal component modeled by human endothelial cells (HUVEC) and fibroblasts modeled by human mesenchymal stem cells (MSCs). The concentration ranges selected for each drug and investigational agent were based upon clinically achievable concentrations if the clinical Cmax of the agent was known.
Compounds. The drugs and investigational agents used in this study are listed on Table 1. All of the agents used, including staurosporine (NSC755774) and gemcitabine (NSC613327), were obtained from the Developmental Therapeutics Program, NCI. FDA-approved anticancer drugs are available from the NCI at http://dtp.nci.nih.gov/branches/dscb/oncology_drugset_explanation.html. Drugs and investigational agents were >95% pure by proton nuclear magnetic resonance (NMR) and liquid chromatography/mass spectrometry (LC/MS). Stock solutions were prepared at 400x in DMSO, stored at -70 degrees C, and diluted in fresh medium prior to their use. The final concentration of DMSO in cell culture wells never exceeded 0.25% (v/v). The FDA-approved anticancer drug set is available from the Developmental Therapeutics Program at https://dtp.cancer.gov/organization/dscb/obtaining/available_plates.htm. All drugs and investigational agents were tested over a range starting from a high concentration at or near the clinical Cmax and decreasing in half-log increments. If the clinical Cmax for an agent had not been determined, the highest concentration tested was 10 microM.
Cell Lines. The patient-derived cancer cell (PDC) lines: 292921-168-R-J2-PDC, K24384-001-R-PDC, and 521955-158-R2-J5-PDC pancreatic carcinomas, 556581-035-R-J1 ovarian carcinoma, 324938-238-R-J1-PDC, 855422-203-R-J1-PDC and 883617-216-R-J1-PDC urothelial bladder carcinomas, 743489-274-T-PDC renal cell carcinoma, 138582-R-J1 Merkel cell tumor, K60290-347-R-J1 and K57222-313-R-J1-PDC glioblastomas, 653999-131-R-J2-PDC, LG0703-F948-PDC, and 349418-098-R-PDC non-small cell lung carcinomas, 885512-296-R-J2-PDC, 171881-019-R-J1-PDC breast carcinomas and 186277-243-T-J2-PDC and 233499-124-R-J2-PDC colon carcinomas were obtained from the NCI Patient-Derived Models Repository (PDMR, https://pdmr.cancer.gov). The established cell lines NCI/ADR-RES (RRID:CVCL_14520 and OVCAR-5 (RRID:CVCL_1628) ovarian carcinomas, 786-O (RRID:CVCL_1051) and A498 (RRID:CVCL_A498) renal cell carcinoma, NCI-H211 (ATCC, cat. CRL-5824; RRID:CVCL_1529), NCI-H196 (ATCC, cat. CRL-5823, RRID:CVCL_1509), SW 1271 (ATCC, cat. CRL-2177, RRID:CVCL_1716) and NCI-H1876 (ATCC, cat. CRL-5902, RRID:CVCL_1503) small cell lung carcinomas, MDA-MB-231 (RRID:CVCL_0062) and MDA-MB-468 (RRID:CVCL_0419)breast carcinomas (10-12). Pooled donor human umbilical vein endothelial cells (HUVEC, Lonza, cat. CC-2519) and human mesenchymal stem cells (hMSC, Lonza, cat. PT-2501) were purchased from Lonza (Walkersville, MD).
Cell Culture. All cells were maintained in an incubator at 37 degrees C and 5% CO2 with 95% humidity. The PDC lines were cultured according to standard operating procedures established by the NCI PDMR (https://pdmr.cancer.gov). Briefly all PDCs were thawed and cultured in Matrigel-coated flasks prepared with a working solution of 1X Ham's F-12 nutrient mix, without supplementation (Invitrogen, Waltham, MA, cat. 11765054), 100 U/mL penicillin-streptomycin (Invitrogen, cat. 15140122), and 2.5% Matrigel (Corning Inc., Corning, NY, cat. 354248) for the first three passages. […]
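Also: spheroids exposed to agents for seven days before readout.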
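For viability, T/C in this document: 100% = DMSO vehicle control wells as normalization base.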

In the case of `CCc1c2c(nc3ccc(O)cc13)-c1cc3c(c(=O)n1C2)COC(=O)[C@]3(O)CC` + NC1CC1c1ccc(-c2cccc(O)c2)cc1, the IC50 (second compound 0.1 µM) is reported as 1.2 nM, the IC50 (second compound 0.316 µM) is reported as 1.31 nM and the IC50 (second compound 1 µM) is reported as 2.33 nM. For the same compound, the IC50 (second compound 3.16 µM) was 3.09 nM, the IC50 (second compound 10 µM) was 2.61 nM and the viability, T/C (second compound 0.1 µM, first compound 0.000949 µM) was 55.8%. For the same compound, the viability, T/C (second compound 0.1 µM, first compound 0.003 µM) was 29.2%, the viability, T/C (second compound 0.1 µM, first compound 0.00949 µM) was 21.3% and the viability, T/C (second compound 0.1 µM, first compound 0.03 µM) was 11.7%. It also gave a viability, T/C (second compound 0.1 µM, first compound 0.0949 µM) of 5.98%, a viability, T/C (second compound 0.1 µM, first compound 0.3 µM) of 3.08% and a viability, T/C (second compound 0.316 µM, first compound 0.000949 µM) of 54.8%. It also gave a viability, T/C (second compound 0.316 µM, first compound 0.003 µM) of 37.7%, a viability, T/C (second compound 0.316 µM, first compound 0.00949 µM) of 24.2% and a viability, T/C (second compound 0.316 µM, first compound 0.03 µM) of 12.6%. The viability, T/C (second compound 0.316 µM, first compound 0.0949 µM) was 5.51%, the viability, T/C (second compound 0.316 µM, first compound 0.3 µM) was 2.54% and the viability, T/C (second compound 1 µM, first compound 0.000949 µM) was 68.2%. It also gave a viability, T/C (second compound 1 µM, first compound 0.003 µM) of 44.7%, a viability, T/C (second compound 1 µM, first compound 0.00949 µM) of 25.4% and a viability, T/C (second compound 1 µM, first compound 0.03 µM) of 11.7%. For the same compound, the viability, T/C (second compound 1 µM, first compound 0.0949 µM) was 5.78%, the viability, T/C (second compound 1 µM, first compound 0.3 µM) was 2.05% and the viability, T/C (second compound 3.16 µM, first compound 0.000949 µM) was 69.9%. It also gave a viability, T/C (second compound 3.16 µM, first compound 0.003 µM) of 49.7%, a viability, T/C (second compound 3.16 µM, first compound 0.00949 µM) of 29.8% and a viability, T/C (second compound 3.16 µM, first compound 0.03 µM) of 12.2%. For the same compound, the viability, T/C (second compound 3.16 µM, first compound 0.0949 µM) was 2.96%, the viability, T/C (second compound 3.16 µM, first compound 0.3 µM) was 1.53% and the viability, T/C (second compound 10 µM, first compound 0.000949 µM) was 68.4%. For the same compound, the viability, T/C (second compound 10 µM, first compound 0.003 µM) was 47.3%, the viability, T/C (second compound 10 µM, first compound 0.00949 µM) was 23.1% and the viability, T/C (second compound 10 µM, first compound 0.03 µM) was 8%. For the same compound, the viability, T/C (second compound 10 µM, first compound 0.0949 µM) was 1.01% and the viability, T/C (second compound 10 µM, first compound 0.3 µM) was 0.49%.
